Consider four compounds from US7235534B2, “Antisense strategy to modulate estrogen receptor response (ER α and/or ER β )” (Institut de Cardiologie de Montreal, priority 2001, dated 2007).

The subject of test [1] is Porcine smooth muscle cells (PSMC). In words: Mitogenic assay on PSMC (cell count). It is filed as cell-based. The settings on record: for inhibition of PSMC proliferation mediated by FBS: 17βE 10^−7M, 72 h. How it is done:
Confluent PAEC and PSMC were rinsed with DMEM and trypsinized. Cells were resuspended in 10 ml of DMEM, 5% FBS, and antibiotics, and a cell count was obtained with a Coulter Counter Z1 (Coulter Electronics, Luton, UK). PAEC and PSMC were seeded at 1×10^4 cells/well of 24-well tissue culture plates (Becton-Dickinson, Rutherford, N.J., U.S.A.) stimulated for 24 h in DMEM, 5% FBS, and antibiotics, and starved for 48 h in DMEM, 0.1% FBS, and antibiotics. […] After trypsinization, cell number was determined by using a Coulter counter.
Confluent PAEC and PSMC were rinsed with DMEM and trypsinized. Cells were resuspended in 10 mL of DMEM, 5% FBS, and antibiotics, and a cell count was obtained. PAEC and PSMC were initially seeded at 1×10^4cells/well of 24-well tissue culture plates stimulated for 24 hours in DMEM, 5% FBS, and antibiotics with or without antisense oligomers (10^−6 mol/L), and starved for 48 hours in DMEM, 0.1% FBS, and antibiotics with or without antisense oligomers (10^−6 mol/L daily) for G0 synchronization. Initial cell number for growth was determined using a Coulter counter. The cells were stimulated for 72 hours in DMEM, 1% FBS, antibiotics with or without antisense oligomers (10^−6 mol/L daily) and with or without of 17βE (Sigma). After trypsinization, cell number was determined by using a Coulter counter.

Another test has as its system p42/44 MAPK. Description: Western blot of p42/44 MAPK phosphorylation in PAEC. It is filed as cell-based, porcine. The settings on record: for decrease of p42/44 MAPK phosphorylation induced by 5 min stimulation of 17βE: antagonist 10^−7M 5 min prior to 17βE 10^−8M. Here is the method:
Confluent PAEC and PSMC were starved for 7 hours in DMEM and antibiotics. Culture medium was removed, and cells were rinsed twice with ice-cold DMEM. PSMC were incubated on ice in DMEM with or without 17βE (10^−8M) for 30 min, incubated at 37° C. for 5, 10, 15 and 30 min, then brought back on ice. Cell were then rinsed with cold DMEM, incubated on ice in DMEM, bovine serum albumin (1 mg/ml), PDGF-BB (10 ng/ml) for 30 min, incubated at 37° C. for 5 min, and then brought back on ice. […] […] Total proteins were prepared by the addition of 500 μl of lysis buffer containing phenylmethylsulfonyl fluoride 1 mM, leupeptin 10 μg/ml, aprotinin 30 μg/ml, and NaVO3 1 mM (Sigma). Plates were incubated at 4° C. for 30 min and scraped, and the protein concentration was determined with a Bio-Rad protein kit (Bio-Rad, Hercules, Calif.). Same protein quantity for each cell type and condition were dissolved in Laemmli's buffer, boiled for 5 min in reducing conditions, separated by a 10% gradient SDS-PAGE (Protean II kit; Bio-Rad), and transblotted onto a 0.45-μm polyvinylidene difluoride membranes (Millipore Corp., Bedford, Mass.). The membranes were blocked in 5% Blotto-TTBS (5% nonfat dry milk; Bio-Rad), 0.05% Tween 20, 0.15 M NaCl, 25 mM Tris-HCl, pH 7.5) for 1 h at room temperature with gentle agitation and incubated overnight at 4° C. in 0.5% Blotto-TTBS with the addition of an anti-phospho p42/44 MAPK or an anti-phospho p38 MAPK rabbit polyclonal antiserums (α-pp42/44; dilution of 1:10 000, and α-pp38; dilution 1:5000, New England BioLabs, Beverly, Mass.). Membranes were washed with TTBS, and incubated at room temperature with an anti-rabbit IgG antibody coupled to horseradish peroxidase (dilution 1:10 000–1:20 000, Santa Cruz Biotechnology, Santa Cruz, Calif.) in 0.5% Blotto-TTBS for 30 min. […] Kaleidoscope molecular weight and SDS-plyacrylamide gel electrophoresis broad range marker proteins (Bio-Rad) were used as standards for SDS-plyacrylamide gel electrophoresis. Digital image densitometry (PDI Bioscience, Aurora, ON) was performed on x-ray film to determine relative percentages of p42/44 and p38 MAPK phosphorylation.
Confluent PAEC and PSMC were preteated with or without antisense sequences as described above for Western Blot analysis. Cells were rinsed twice with ice-cold DMEM. PSMC and PAEC were stimulated with or without 17βE (10^−8 mol/L) as previously described (Geraldes P). Briefly, PSMC were incubated on ice in DMEM with or without 17βE (10^−8 mol/L) for 30 minutes, incubated at 37° C. for 30 minutes, then brought back on ice. Cells were then rinsed with cold DMEM, incubated on ice in DMEM, bovine serum albumin (1 mg/mL), PDGF-BB (10 ng/mL) for 30 minutes, incubated at 37° C. for 5 and 30 minutes, and then brought back on ice. PAEC were incubated on ice in DMEM with or without 17βE (10^−8 mol/L) for 30 minutes, then incubated at 37° C. for 5 and 30 minutes and brought back on ice. Total proteins were prepared-by the addition of 500 μL of lysis buffer, incubated at 4° C. for 30 minutes and scraped to collect the proteins. Same quantity of protein was separated by a 10% gradient SDS-PAGE (Protean II kit; Bio-Rad), and transblotted onto a 0.45-μm polyvinylidene difluoride membranes (Millipore Corp.). The membranes were blocked for 1 hour at room temperature with gentle agitation and incubated overnight at 4° C. in 0.5% Blotto-TTBS with the addition of an antiphospho p42/44 MAPK or an antiphospho p38 MAPK rabbit polyclonal antiserums (α-pp42/44; dilution of 1:10000, and α-pp38; dilution 1:5 000, New England BioLabs, Beverly, Mass.). Membranes were washed with TTBS, and incubated at room temperature with an anti-rabbit IgG antibody coupled to horseradish peroxidase (dilution 1:10 000–1:20 000, Santa Cruz Biotechnology) in 0.5% Blotto-TTBS for 30 minutes. […] Digital image densitometry (PDI Bioscience) was performed on X-ray film to determine relative phosphorylation of p42/44 and p38 MAPK. […]
(In western blotting, separated proteins are transferred to a membrane and probed.)

The conditions of test [2]: local delivery upon porcine coronary angioplasty; cited from earlier work.

SMILES strings stand for the structures.

As to `CC/C(=C(\c1ccc(O)cc1)c1ccc(OCCN(C)C)cc1)c1ccccc1` [4-OHT, 4-OH-Tamoxifen], in test [1] (4-OHT 10^−8M and 10^−7M, 17βE 10^−8M, FBS 1%), the “reversal of the anti-mitogenic activity of 17βE on PSMC” value (shortened to “reversal”) is 81%. In addition, the “decrease of p42/44 MAPK phosphorylation induced by 5 min stimulation of 17βE” value (“decrease” below) in the test on p42/44 MAPK came to 44%.
On to `C[C@]12CC[C@@H]3c4ccc(O)cc4CC[C@H]3[C@@H]1CC[C@@H]2O` [17βE, 17-beta-estradiol], for which the “inhibition of PSMC proliferation mediated by FBS” value in test [1] (FBS 1%) came to 88%; in test [1] (FBS 5%), 90%. Also, the “inhibition of FBS 1% mitogenic activity on PSMC” value in test [1] (17βE 10^−8M, Example 1) is “inhibited completely”. Moreover, in test [1] (17βE 10^−8 mol/L, Example 2), the “prevention of PSMC proliferation mediated by FBS 1%” value worked out at 95%. Besides, the “increase of p42/44 MAPK phosphorylation” value in the test on p42/44 MAPK (17βE 10^−8M, 5 minutes, Example 1) was 1122%; in the test on p42/44 MAPK (17βE 10^−8M, 10 minutes), 1074%; in the test with p42/44 MAPK (17βE 10^−8M, 15 minutes) it was 1420%; in the test with p42/44 MAPK (17βE 10^−8M, 30 minutes), 1835%; in the test with p42/44 MAPK (17βE 10^−8 mol/L, 5 minutes, Example 2) it was 329%. Moreover, the “reduction of the degree of restenosis” value in test [2] was “up to 50%”.
Consider `O=C(c1ccc(OCN2CCCCC2)cc1)c1c(-c2ccc(O)cc2)sc2cc(O)ccc12` [Ral, Raloxifen], for which the “reversal” value in test [1] (Rai 10^−1M as printed, 17βE 10^−8M, FBS 1%) was determined as 100%. Also, in the test on p42/44 MAPK, the “decrease” value stood at 66%.
As to `CC/C(=C(\c1ccccc1)c1ccc(OCCN(C)C)cc1)c1ccccc1` [Tam, Tamoxifen], in test [1] (Tam 10^−7M, 17βE 10^−8M, FBS 1%), the “reversal” value was 75%. Further, in the test on p42/44 MAPK, the “decrease” value was found to be 36%.
